According to PubChem BioAssay (NCI):
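GI50 is the concentration that inhibits growth by half. Definition used: TGI = concentration required for complete inhibition of growth.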

Legend:
Assay in all cases: growth of human tumour cells (NCI), 384-well format
PC-3 prostate = tested on: PC-3 prostate
KM12 colon = tested on: KM12 colon
U251 glioblastoma = tested on: U251 glioblastoma
MDA-MB-468 breast = tested on: MDA-MB-468 breast
HT29 colon = tested on: HT29 colon
SK-MEL-5 melanoma = tested on: SK-MEL-5 melanoma
ACHN renal = tested on: ACHN renal
MOLT-4 leukemia = tested on: MOLT-4 leukemia
786-0 renal = tested on: 786-0 renal
SNB-19 CNS = tested on: SNB-19 CNS
HCT-15 colon = tested on: HCT-15 colon
K-562 leukemia = tested on: K-562 leukemia
OVCAR-4 ovarian = tested on: OVCAR-4 ovarian

COc1ccc([C@@H](O)c2cc(-c3ncnc4cc(N5CCOCC5)ccc34)c(F)cc2Cl)nn1
GI50 (PC-3 prostate): 0.889 µM
TGI (PC-3 prostate): 11.1 µM
GI50 (KM12 colon): 5.81 µM
TGI (KM12 colon): 19 µM
GI50 (U251 glioblastoma): 8.43 µM
TGI (U251 glioblastoma): 26.1 µM
GI50 (MDA-MB-468 breast): 1.03 µM
TGI (MDA-MB-468 breast): 4.31 µM
GI50 (HT29 colon): 3.36 µM
TGI (HT29 colon): 16.3 µM
GI50 (SK-MEL-5 melanoma): 1.61 µM
TGI (SK-MEL-5 melanoma): 5.92 µM
GI50 (ACHN renal): 2.38 µM
TGI (ACHN renal): 16.5 µM
GI50 (MOLT-4 leukemia): 0.892 µM
TGI (MOLT-4 leukemia): 2.31 µM
GI50 ([…]-0 renal): 2.6 µM
TGI (786-0 renal): 17.8 µM
GI50 (SNB-19 CNS): 7.21 µM
TGI (SNB-19 CNS): 28.3 µM
GI50 (HCT-15 colon): 3.49 µM
TGI (HCT-15 colon): 15 µM
GI50 (K-562 leukemia): 3.55 µM
TGI (K-562 leukemia): 22 µM
GI50 (OVCAR-4 ovarian): 5.02 µM
TGI (OVCAR-4 ovarian): 26.2 µM
